For one data set, the system named is P. acnes. The experiment in a line: MIC against planktonic P. acnes. The following applies: Cutibacterium acnes; exponentially-growing planktonic bacteria, oxygen-free atmosphere; read-out: MIC (minimal inhibitory concentration). Format: cell-based, Propionibacterium acnes. The protocol: Serial dilutions of SBD.SE and SBD.FA were incubated with exponentially-growing planktonic P. acnes bacteria in oxygen-free atmosphere.
The MIC (minimal inhibitory concentration) for SBD.SE was determined to be about 30 μg/ml and for SBD.FA—about 60 μg/ml.

Data set [1] concerns mouse melanoma cells (B16F10). Nature of the data set: B16F10 melanoma growth and melanin. Format: cell-based. The following applies: Mus musculus, B16-F10; 2.5 μg/ml; read-out: inhibition of B16F10 melanocyte proliferation. The text has this:
Instead, cells cultured in the presence of SBD.SE grew slower and if allowed to reach monolayer, they become growth-arrested due to contact inhibition. […] Other retinoids, such as bexarotene, are known to have antineoplastic activity against cancers such as cutaneous T cell lymphoma.
The mechanism of action for this effect may be multifactorial and involve the inhibition of tyroinase and/or melanin secretion by melanocytes.

Data set [2] in a line: DPPH assay (free radical scavenging). The format is biochemical. The following applies: 520 nm. The source says:
The objective of this experiment was to determine the antioxidant capacity of SBD.SE, using DPPH assay methodology. DPPH (2,2-diphenyl-1-picrylhydrazyl) is a stable free radical. The principle of the DPPH assay uses the reduction of the DPPH radical (purple) to diphenylpicrylhydrazine (yellow) as an indication of free radical scavenging capacity of a given test material (Schenk, G. H., Swieczkowski, N. K., “Colorimetric determination of pyrogallol and 2,6-dimethoxyphenol with diphenylpicrylhydrazyl,” Talanta, 1971, 18:230-4). Following the incubation of a test agent with DPPH solution, a reduction in absorbance at 520 nm compared to control is indicative of DPPH-scavenging. The degree of DPPH scavenging activity is expressed as % water control.
(DPPH is a stable violet radical that fades when it is reduced.)

Data set [3] has as its system non-irradiated neonatal HDF. Nature of the data set: Cytotoxicity on non-irradiated neonatal HDF monolayers. The format is cell-based, human. The settings on record: 12.5 μg/ml.
The next data set has as its system 3T3 cells. Nature of the data set: 3T3 Neutral Red phototoxicity (OECD 432). The format is cell-based. The following applies: up to at least 100 μg/ml. On the procedure: Phototoxicity is defined as light-activated cytotoxicity. […] The protocol followed in this example was based on the OECD 432 Guidelines. Four 96 well plates were seeded with 3T3 cells (Sigma, St. Louis, Mo.; cat. 93061524-1VL) at 10,000 cells per well in DMEM supplemented with 10% iron-fortified calf serum, and grown overnight in humidified atmosphere at 37° C. in 5% CO2. Serial dilutions of SBD.SE and chlorpromazine (positive control) were added to 2 plates each. […]
[…] Plates were returned to the incubator for 24 h, afterward the medium was removed, cells were rinsed with PBS and placed in Neutral Red medium at 50 μg/ml in which cells were incubated for 3 more hours. Wells were then washed with PBS and Neutral Red was extracted from cells with 1.0% Glacial Acetic Acid/50% Ethanol/49% H2O solution.
Following a 30-minute extraction with mixing, the absorbance of each well was measured at 570 nm with Molecular Devices SpectraMax® microplate spectrophotometer. P values were calculated using two-tailed Student's test and p=0.05 was set as borderline for statistical significance.

In data set [4] the test system is UVB-irradiated neonatal human dermal fibroblasts (HDF). The experiment in a line: MTT cytotoxicity on UVB-irradiated HDF. Format: cell-based. The settings on record: 10 μg/ml. The text has this: Retinoids are used to remediate the effects of photoaging, caused by exposure to solar radiation (Tierney, E. P., Hanke C. W., “Recent Advances in Combination Treatments for Photoaging: Review of the Literature,” Dermatol. Surg., 2010, 36:829-40). Therefore, we compared the effect of bakuchiol and SBD.FA on confluent cultures of UVB-irradiated neonatal human dermal fibroblasts (HDF). The total irradiation dose (150mJ/cm2) was biologically relevant, i.e., equivalent to doses received by humans exposed to midday, clear sky, midsummer sun for a moderate period of time (Besaratinia, A., Kim, S. I., Pfeifer, G. P., “Rapid repair of UVA-induced oxidized purines and persistence of UVB-induced dipyrimidine lesions determine the mutagenicity of sunlight in mouse cells,” FASEB J., 2008, 22(7):2379-92). […] Under these conditions, the cytotoxicity at the highest concentration tested (10 μg/ml) compared to the water-treated control was 36% for bakuchiol and 8% for SBD.FA, as determined by the MTT method (Berridge M. V., Tan A. S., “Characterization of the Cellular Reduction of 3-(4,5-dimethylthiazol-2-yl)-2,5-diphenyltetrazolium bromide (MTT): Subcellular Localization, Substrate Dependence, and Involvement of Mitochondrial Electron Transport in MTT Reduction,” Arch. Biochem. Biophys. 1993, 303:474-482), using Molecular Devices microplate spectrophotometer MAX190 at 570 nm.

In the next data set the test system is adult HEK. Nature of the data set: Adult HEK proliferation. Format: cell-based, human. The following applies: Homo sapiens; 2.5 μg/ml.
The next data set has as its system RAR. Nature of the data set: Cignal RAR reporter assay. The format is cell-based. The following applies: 0.3 μg/ml. The source says:
Tissue irritation is a common side effect of retinoids. It is mediated, at least in part, by retinoid interaction with retinoic acid receptors (RARs; Thacher S M, Vasudevan J, Chandraratna R A. Therapeutic applications for ligands of retinoid receptors. Curr Pharm Des. 2000 January; 6(1):25-58; Kambayashi H, Odake Y, Takada K, Funasaka Y, Ichihashi M, Kato S. N-retinoyl-D-glucosamine, a new retinoic acid agonist, mediates topical retinoid efficacy with no irritation on photoaged skin. Br J Dermatol. 2005 December; 153 Suppl 2:30-6).
(A reporter such as luciferase makes a cellular process visible.)

Data set [5] in a line: UVB irradiation, HPLC-MS profile. Format: physicochemical. The settings on record: irradiated vs non-irradiated. The source says: Both compounds were irradiated with UVB light and their HPLC-MS profile was compared to their respective non-irradiated controls. FIGS. 2, 3, 6, and 7 show HPLC chromatograms of UVB-irradiated (lower portions) and non-irradiated samples (upper portions) of bakuchiol (FIGS. 2 and 3) and SBD.SE (FIGS. 6 and 7) detected at 254 nm (FIGS. 2 and 6) and 230 nm (FIGS. 3 and 7).

Molecules are shown by their SMILES. Values after ≈ are worked out from the molar mass of the structure shown.

Consider 3 compounds from patent US10471035B2, “Compositions and methods for using esters of meroterpenes and of other resveratrol analogues” (Sunny BioDiscovery, priority 2014, dated 2019).

With `C=CC(C)(/C=C/c1ccc(OC(=O)/C=C/c2ccc(O)c(OC)c2)cc1)CCC=C(C)C` (stereo not shown) [SBD.FA], the MIC in the data set with P. acnes was approximately 60 µg/mL (≈ 139 µM). For the same compound, the inhibition at 2.5 µg/mL in data set [1] came to 53%; in the data set on adult HEK, 21%. Besides, the “DPPH color (% Control)” value in data set [2] (0.5 ug/ml) was found to be 102 % Control; in data set [2] (2 ug/ml), 99 % Control; in data set [2] (10 ug/ml), 60 % Control. Further, in data set [3] (human), the cytotoxicity amounted to 8%. In the data set with 3T3 cells, the “cytotoxicity in absence and presence of UVB light” value is “lack of significant cytotoxicity”. Moreover, the “cytotoxicity compared to the water-treated control” value in data set [4] (human, 48 h) is 8%.

Take `CC1=C(/C=C/C(C)=C/C=C/C(C)=C/C(=O)O)C(C)(C)CCC1` [ATRA, all-trans retinoic acid, reference compound]: the “increase of RAR-mediated transcription” value in the data set on RAR is 460%.

Regarding `C=C[C@@](C)(/C=C/c1ccc(O)cc1)CCC=C(C)C` [bakuchiol, reference compound], the “stability under UVB irradiation (HPLC-MS)” value in data set [5] is reported as “disintegrates”. Also, the “DPPH color (% Control)” value in data set [2] (0.5 ug/ml) was found to be 85 % Control; in data set [2] (2 ug/ml), 92 % Control; in data set [2] (10 ug/ml) it was 46 % Control. Moreover, in data set [3] (monolayers formed before addition), the cytotoxicity is reported as 39%. In addition, the “cytotoxicity compared to the water-treated control” value in data set [4] (UVB 150mJ/cm2, added 24 h before, terminated 24 h after irradiation, MTT) was found to be 36%.
